In PMC6585620 (Clinical Pharmacology and Therapeutics, 2018):
Read-outs that look alike come from different tables or passages of the source.

Legend:
[1] = molecular target: T1, UGT1A1 (Homo sapiens, UniProt P22309); test: In vitro UGT1A1 inhibition; type: in vitro ADME; conditions: UGT1A1 (Ki=IC50/2), measured data
T1 sequence (P22309 26-533): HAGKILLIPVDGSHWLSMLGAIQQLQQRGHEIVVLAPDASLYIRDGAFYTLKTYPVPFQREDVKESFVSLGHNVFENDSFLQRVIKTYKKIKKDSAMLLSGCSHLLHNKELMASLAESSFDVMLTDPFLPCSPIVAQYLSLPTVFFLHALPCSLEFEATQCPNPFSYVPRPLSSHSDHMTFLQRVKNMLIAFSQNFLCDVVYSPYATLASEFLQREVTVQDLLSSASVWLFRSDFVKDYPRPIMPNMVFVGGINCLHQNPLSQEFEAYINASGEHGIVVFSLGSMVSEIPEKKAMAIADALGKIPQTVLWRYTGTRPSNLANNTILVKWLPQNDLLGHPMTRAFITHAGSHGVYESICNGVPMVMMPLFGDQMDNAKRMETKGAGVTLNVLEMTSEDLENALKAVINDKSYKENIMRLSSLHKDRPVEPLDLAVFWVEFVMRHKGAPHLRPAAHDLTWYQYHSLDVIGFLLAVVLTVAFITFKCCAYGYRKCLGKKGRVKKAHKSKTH

[2] = cited from earlier work; for Increase in AUC vs normal renal function / Increase in Cmax vs normal renal function: single oral 300 mg tablet
[3] = molecular target: T2, CYP3A4 (Homo sapiens, UniProt P08684); test: In vitro CYP3A4 time-dependent inhibition; type: in vitro ADME; conditions: measured data
T2 sequence (P08684 whole entry): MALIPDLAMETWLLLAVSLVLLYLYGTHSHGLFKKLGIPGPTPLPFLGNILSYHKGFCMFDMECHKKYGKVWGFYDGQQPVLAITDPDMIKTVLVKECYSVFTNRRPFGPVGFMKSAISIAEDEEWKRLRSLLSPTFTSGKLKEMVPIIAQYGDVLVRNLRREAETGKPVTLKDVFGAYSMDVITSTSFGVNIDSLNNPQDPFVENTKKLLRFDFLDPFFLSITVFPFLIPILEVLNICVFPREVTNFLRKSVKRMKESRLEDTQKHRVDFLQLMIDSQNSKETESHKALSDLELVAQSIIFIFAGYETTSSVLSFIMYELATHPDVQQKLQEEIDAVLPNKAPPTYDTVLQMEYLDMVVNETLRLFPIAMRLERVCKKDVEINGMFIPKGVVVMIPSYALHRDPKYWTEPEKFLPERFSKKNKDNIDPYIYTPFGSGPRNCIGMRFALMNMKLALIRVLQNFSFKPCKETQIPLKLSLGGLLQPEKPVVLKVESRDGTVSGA

[4] = test system: CYP3A4; test: In vitro CYP3A4 induction; type: in vitro ADME, human
[5] = Mass balance ADME study with [14C]-olaparib; type: in vivo, human; conditions: Figure S1
[6] = Blood-to-plasma ratio and plasma unbound fraction; type: in vitro ADME
[7] = PBPK model parameters estimated or predicted in Simcyp; set-up: species or system human; conditions: for CYP3A CLint: retrograde approach
[8] = molecular target: T3, P‐glycoprotein (P‐gp) (Homo sapiens, UniProt P08183); conditions: read-out: P‐gp inhibition IC50; in vitro; cited from earlier work
T3 sequence (P08183 whole entry): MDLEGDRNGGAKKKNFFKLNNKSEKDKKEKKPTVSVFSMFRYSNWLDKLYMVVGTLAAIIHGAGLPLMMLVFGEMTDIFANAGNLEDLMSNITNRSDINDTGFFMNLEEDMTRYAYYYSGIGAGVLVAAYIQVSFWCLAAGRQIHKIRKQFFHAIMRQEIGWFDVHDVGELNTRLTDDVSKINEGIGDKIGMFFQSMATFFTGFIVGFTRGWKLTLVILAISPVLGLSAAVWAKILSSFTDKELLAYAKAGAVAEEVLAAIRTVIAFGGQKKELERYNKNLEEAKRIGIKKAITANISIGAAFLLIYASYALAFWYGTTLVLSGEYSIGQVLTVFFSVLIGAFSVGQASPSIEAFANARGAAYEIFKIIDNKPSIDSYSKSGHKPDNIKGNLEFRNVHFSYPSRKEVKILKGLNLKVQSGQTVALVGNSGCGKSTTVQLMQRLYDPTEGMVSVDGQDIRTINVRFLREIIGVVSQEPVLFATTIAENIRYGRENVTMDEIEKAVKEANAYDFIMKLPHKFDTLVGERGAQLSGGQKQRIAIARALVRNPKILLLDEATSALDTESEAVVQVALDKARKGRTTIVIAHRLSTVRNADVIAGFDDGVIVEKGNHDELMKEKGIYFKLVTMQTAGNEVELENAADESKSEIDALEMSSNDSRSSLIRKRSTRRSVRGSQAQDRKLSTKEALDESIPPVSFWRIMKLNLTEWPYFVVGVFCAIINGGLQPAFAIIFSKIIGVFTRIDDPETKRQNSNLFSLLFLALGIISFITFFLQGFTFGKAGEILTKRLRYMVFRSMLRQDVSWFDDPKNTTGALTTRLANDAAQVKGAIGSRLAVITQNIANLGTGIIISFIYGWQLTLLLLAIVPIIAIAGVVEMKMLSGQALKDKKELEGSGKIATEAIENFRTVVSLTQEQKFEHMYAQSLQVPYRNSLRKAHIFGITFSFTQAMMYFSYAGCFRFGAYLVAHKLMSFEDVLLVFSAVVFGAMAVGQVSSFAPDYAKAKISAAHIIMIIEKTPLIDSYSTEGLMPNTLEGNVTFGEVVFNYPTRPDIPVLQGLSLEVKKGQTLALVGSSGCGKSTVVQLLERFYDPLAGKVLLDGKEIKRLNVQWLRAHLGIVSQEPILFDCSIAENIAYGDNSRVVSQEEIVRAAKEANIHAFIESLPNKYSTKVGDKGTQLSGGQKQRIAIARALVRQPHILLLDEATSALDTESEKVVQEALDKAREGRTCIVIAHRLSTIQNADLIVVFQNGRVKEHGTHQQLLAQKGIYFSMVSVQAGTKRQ

[9] = Physicochemical properties; conditions: PBPK input
[10] = molecular target: T1, UGT1A1; conditions: read-out: UGT1A1 inhibition IC50; in vitro; cited from earlier work
[11] = molecular target: T3, P‐glycoprotein (P‐gp); test: In vitro P-gp inhibition; type: in vitro ADME
[12] = molecular target: T2, CYP3A4; test: In vitro CYP3A4 reversible inhibition; type: in vitro ADME
[13] = observed, cited from earlier work
[14] = tablet 300 mg bid, cited from earlier work
[15] = PKPD exposure-response analysis of SOLO2; type: in vivo, human; conditions: for a 50% increase in exposure to olaparib
[16] = capsule model, estimated based on clinical data
[17] = capsule 400 mg single dose, arithmetic mean (min–max)
[18] = tablet 300 mg bid multiple dose
[19] = adults SOLO2 (observed), ref SOLO2 (NCT01874353)

O=C(c1cc(Cc2n[nH]c(=O)c3ccccc23)ccc1F)N1CCN(C(=O)C2CC2)CC1 [Olaparib]
Ki [1]: 48.4 µM
Renal clearance ([2]; based on clinical data, ref NCT01894256): 1.48 (based on clinical data: NCT01894256) L/h
Change in AUC and Cmax vs normal hepatic function ([2]; mild and moderate hepatic impairment): < 15%
Increase in AUC vs normal renal function ([2]; mild renal impairment): 24%
Increase in Cmax vs normal renal function ([2]; mild renal impairment): 15%
Increase in AUC vs normal renal function ([2]; moderate renal impairment): 44%
Increase in Cmax vs normal renal function ([2]; moderate renal impairment): 26%
CYP3A4 TDI KI [3]: 72.2 (measured data) μM
EC50 ([4]; human): 17.7 µM
CYP3A4 induction Emax ([4]; measured data): 48.1 (measured data) fold
Share of total clearance by oxidation via CYP3A4/5 [5]: 84%
Share of total clearance by renal elimination [5]: 16%
fu,plasma ([6]; fraction unbound in plasma, measured data): 0.181 (measured data)
fraction unbound ([6]; human, plasma): 0.181
CLpo [7, 16]: 6.07 (estimated based on clinical data) L/h
Peff,man [7, 16]: 644 ×10⁻⁶ cm/s (estimated based on clinical data)
CYP3A CLint ([7]; capsule model): 0.0412 (retrograde approach) µL/min/pmol of isoform
CLpo ([7]; tablet model, estimated based on clinical data): 7.6 (estimated based on clinical data) L/h
CYP3A CLint ([7]; tablet model): 0.057 (retrograde approach) µL/min/pmol of isoform
IC50 [8]: 76 µM
pKa [9]: Neutral
Log P ([9]; measured data): 1.55 (measured data)
IC50 [10]: 96.7 µM
Ki [11]: 73.9 µM
Ki [12]: 59.5 µM
AUCt (range) [13, 17]: 56.2 (21.9–299) h·µg/mL
Cmax (range) [13, 17]: 4.44 (3–15) µg/mL
AUCss (range) [13, 18]: 63.8 (25.5–189) h·µg/mL
Cmax (range) [13, 18]: 9.71 (4.8–24.9) µg/mL
Cmax (range) ([13]; tablet 300 mg single dose, arithmetic mean (min–max)): 7.41 (2.6–19.1) µg/mL
Geometric mean AUC (95% CI) ([14]; adults OlympiAD (observed), ref OlympiAD (NCT02000622)): 41.2 (36.1‐47.0) h·µg/mL
Geometric mean AUC (95% CI) [14, 19]: 40.7 (37.7–44.0) h·µg/mL
Geometric mean Cmax (95% CI) [14, 19]: 7.12 (6.75–7.51) μg/mL
Predicted drop in hemoglobin level [15]: ~17.5%
